# What was measured:
# Kleb. pneumoniae EK-6 = assay: Antibacterial activities (MIC), Kleb. pneumoniae EK-6; format: cell-based; settings: Klebsiella pneumoniae, EK6
# Text: (§1) (1) Antibacterial activities (MIC):
# Staph. aureus 209-P = assay: Antibacterial activities (MIC), Staph. aureus 209-P; format: cell-based; settings: Staphylococcus aureus
# Text: as §1
# Ser. marcescens ES-75 = assay: Antibacterial activities (MIC), Ser. marcescens ES-75; format: cell-based; settings: Serratia marcescens, ES75
# Text: as §1
# Pseud. aeruginosa EP-01 = assay: Antibacterial activities (MIC), Pseud. aeruginosa EP-01; format: cell-based; settings: Pseudomonas aeruginosa, EP01
# Text: as §1
# Escher. coli NIHJ = assay: Antibacterial activities (MIC), Escher. coli NIHJ; format: cell-based; settings: Escherichia coli
# Text: as §1
# Proteus morganii EP-14 = assay: Antibacterial activities (MIC), Proteus morganii EP-14; format: cell-based; settings: Morganella morganii, EP14
# Text: as §1
# Proteus vulgaris E-18 = assay: Antibacterial activities (MIC), Proteus vulgaris E-18 (lactamase producing); format: cell-based; settings: E18; Proteus vulgaris E-18, lactamase producing bacteria
# Text: as §1
# *Lactamase producing bacteria.
# Solubility in water = format: physicochemical; settings: in distilled water at 25° C.
# [1] = Acute toxicity LD50 (mouse, oral); settings: in vivo
# Text: The acute toxicity values [LD50 (mouse, oral)] of the following compounds were each 4 g/kg or greater;
# [2] = Urinary excretion rate in mice; format: in vivo, ICR male mice; settings: mouse, sc, 20 mg/kg subcutaneous, urine up to 6 hours, bioassay
# Experimental: ICR male mice (body weight: 20-30 g) were used. Each compound was dissolved in an M/15 phosphate buffer (pH 7.0) and administered in an amount of 20 mg/kg by the subcutaneous route. Urine was collected up to 6 hours after the administration. The concentration of the compound was determined by the bioassey technique (the agar-well method) using Pseudomonas aeruginosa as a test microorganism. On the basis of the thus-determined concentration, its excreted amount was obtained. The urinary excretion rate was then calculated from the excreted amount based on the amount administered.
SMILES,MIC (Kleb. pneumoniae EK-6) [µg/mL],MIC (Staph. aureus 209-P) [µg/mL],MIC (Ser. marcescens ES-75) [µg/mL],MIC (Pseud. aeruginosa EP-01) [µg/mL],MIC (Escher. coli NIHJ) [µg/mL],MIC (Proteus morganii EP-14) [µg/mL],MIC (Proteus vulgaris E-18) [µg/mL],solubility (Solubility in water) [mg/mL],LD50 [1] [mg/kg],dose excreted at 6 h [2] [%]
CO[C@@]1(NC(=O)[C@H](NC(=O)c2c(C)oc3cc(OC(C)=O)c(OC(C)=O)cc3c2=O)c2ccc(OCC(=O)O)cc2)C(=O)N2C(C(=O)O)=C(CSc3nnnn3CC(=O)O)CS[C@@H]21 [Example 21],≤ 0.05,100,0.1,0.2,0.4,3.13,0.4,–,–,–
"CO[C@@]1(NC(=O)[C@H](NC(=O)c2c(C)oc3c(OC(C)=O)c(OC(C)=O)ccc3c2=O)c2ccc(OCC(=O)O)cc2)C(=O)N2C(C(=O)O)=C(CSc3nnnn3CC(=O)O)CS[C@@H]21 [Example 24, 7β-[D-2-(4-Carboxymethoxyphenyl)-2-(7,8-diacetoxy-2-methyl-4-oxo-4H-1-benzopyran-3-carboxamido)-acetamido]-7α-methoxy-3-(1-carboxymethyl-4-tetrazolyl)thiomethyl-3-cephem-4-carboxylic acid]",≤ 0.05,100,0.8,0.8,0.8,12.5,3.13,–,–,–
CO[C@@]1(NC(=O)[C@H](NC(=O)c2c(C)oc3cc(O)c(O)cc3c2=O)c2ccc(OCC(=O)O)cc2)C(=O)N2C(C(=O)O)=C(CSc3nnnn3CC(=O)O)CS[C@@H]21 [Example 25],≤ 0.05,100,0.1,0.4,0.4,3.13,0.4,≥ 300,≥ 4000,20
"CO[C@@]1(NC(=O)[C@H](NC(=O)c2c(C)oc3c(O)c(O)ccc3c2=O)c2ccc(OCC(=O)O)cc2)C(=O)N2C(C(=O)O)=C(CSc3nnnn3CC(=O)O)CS[C@@H]21 [Example 28, Trisodium 7β-[D-2-(4-carboxymethoxyphenyl)-2-(7,8-dihydroxy-2-methyl-4-oxo-4H-1-benzopyran-3-carboxamido)-acetamido]-7α-methoxy-3-(1-carboxymethyl-5-tetrazolyl)-thiomethyl-3-cephem-4-carboxylate]",≤ 0.05,100,0.8,0.8,0.8,6.25,3.13,–,–,24
"CO[C@@]1(NC(=O)[C@H](NC(=O)c2coc3cc(O)c(O)cc3c2=O)c2ccc(OCC(=O)O)cc2)C(=O)N2C(C(=O)O)=C(CSc3nnnn3CC(=O)O)CS[C@@H]21 [Example 30, Trisodium 7β-[D-2-(4-carboxymethoxyphenyl)-2-(6,7-dihydroxy-4-oxo-4H-1-benzopyran-3-carboxamido)-acetamido]-7α-methoxy-3-(1-carboxymethyl-5-tetrazolyl)-thiomethyl-3-cephem-4-carboxylate]",≤ 0.05,100,0.2,0.4,0.8,6.25,0.8,–,≥ 4000,–
"CO[C@@]1(NC(=O)[C@H](NC(=O)c2coc3cc(O)c(O)cc3c2=O)c2ccc(OCC(=O)O)cc2)C(=O)N2C(C(=O)O)=C(COC(C)=O)CS[C@@H]21 [Example 31, 7β-[D-2-(4-Carboxymethoxyphenyl)-2-(6,7-dihydroxy-4-oxo-4H-1-benzopyran-3-carboxamido)acetamido]-7α-methoxy-3-acetoxymethyl-3-cephem-4-carboxylic acid]",≤ 0.05,50,0.4,0.4,0.8,6.25,1.56,–,–,–
"CO[C@@]1(NC(=O)[C@H](NC(=O)c2c(C)oc3cc(O)c(O)cc3c2=O)c2ccc(OCC(=O)O)cc2)C(=O)N2C(C(=O)O)=C(COC(C)=O)CS[C@@H]21 [Example 33, Disodium 7β-[D-2-(4-carboxymethoxyphenyl)-2-(6,7-dihydroxy-2-methyl-4-oxo-4H-1-benzopyran-3-carboxamido)acetamido]-7α-methoxy-3-acetoxymethyl-3-cephem-4-carboxylate]",≤ 0.05,50,0.8,0.2,0.8,12.5,1.56,–,–,–
"CO[C@@]1(NC(=O)[C@H](NC(=O)c2c(C)oc3cc(O)c(O)cc3c2=O)c2ccc(OCC(=O)O)cc2)C(=O)N2C(C(=O)[O-])=C(C[n+]3ccccc3)CS[C@@H]21 [Example 48, Sodium 7β-[D-2-(4-carboxymethoxyphenyl)-2-(6,7-dihydroxy-2-methyl-4-oxo-4H-1-benzopyran-3-carboxamido)acetamido]-7α-methoxy-3-pyridiniummethyl-3-cephem-4-carboxylate]",≤ 0.05,100,0.1,0.2,0.2,6.25,1.56,≥ 300,≥ 4000,45
"CO[C@@]1(NC(=O)[C@H](NC(=O)c2c(C)oc3cc(O)c(O)cc3c2=O)c2ccc(OCC(=O)O)cc2)C(=O)N2C(C(=O)[O-])=C(C[n+]3ccc(C(N)=O)cc3)CS[C@@H]21 [Example 50, Sodium 7β-[D-2-(4-carboxymethoxyphenyl)-2-(6,7-dihydroxy-2-methyl-4-oxo-4H-1-benzopyran-3-carboxamido)acetamido]-7α-methoxy-3-(4-carbamoylpyridinium)methyl-3-cephem-4-carboxylate]",0.1,100,0.8,0.4,1.56,12.5,3.13,≥ 300,≥ 4000,–
"CO[C@@]1(NC(=O)[C@H](NC(=O)c2coc3cc(O)c(O)cc3c2=O)c2ccc(OCC(=O)O)cc2)C(=O)N2C(C(=O)[O-])=C(C[n+]3ccc(C(N)=O)cc3)CS[C@@H]21 [Example 51, Sodium 7β-[D-2-(4-carboxymethoxyphenyl)-2-(6,7-dihydroxy-4-oxo-4H-1-benzopyran-3-carboxamido)-acetamido]-7α-methoxy-3-(4-carbamoylpyridinium)-methyl-3-cephem-4-carboxylate]",≤ 0.05,50,0.8,0.4,1.56,25,3.13,≥ 300,–,16
"CCn1cc(C(=O)N[C@@H](C(=O)N[C@@H]2C(=O)N3C(C(=O)[O-])=C(C[n+]4ccc(C(N)=O)cc4)CS[C@H]23)c2ccc(OCC(=O)O)cc2)c(=O)c2cc(O)c(O)cc21 [Example 53, Sodium 7β-[D-2-(4-carboxymethoxyphenyl)-2-(6,7-dihydroxy-1-ethyl-1,4-dihydro-4-oxoquinoline-3-carboxamido)acetamido]-3-(4-carbamoylpyridinium)-methyl-3-cephem-4-carboxylate]",≤ 0.05,50,0.8,0.2,0.4,6.25,–,≥ 300,≥ 4000,13
